Legend:
Assay in all cases: radiometric filter-binding kinase assay, Kinase HotSpot
Conditions in all cases: compound 0.5 µM; ATP 10 µM
[1] = target: ACVR1 (human) (UniProt Q04771)
[2] = target: ADRBK1 (human) (UniProt P25098)
[3] = target: AURKC (human) (UniProt Q9UQB9)
[4] = target: BMX (human) (UniProt P51813)
[5] = target: BTK (human) (UniProt Q06187)
[6] = target: CDK1 CCNA2 (human) (UniProt P06493+P20248)
[7] = target: DAPK1 (human) (UniProt P53355)
[8] = target: DDR2 (human) (UniProt Q16832)
[9] = target: DYRK1B (human) (UniProt Q9Y463)
DYRK1B (human), sequence (Q9Y463 whole entry, looked up): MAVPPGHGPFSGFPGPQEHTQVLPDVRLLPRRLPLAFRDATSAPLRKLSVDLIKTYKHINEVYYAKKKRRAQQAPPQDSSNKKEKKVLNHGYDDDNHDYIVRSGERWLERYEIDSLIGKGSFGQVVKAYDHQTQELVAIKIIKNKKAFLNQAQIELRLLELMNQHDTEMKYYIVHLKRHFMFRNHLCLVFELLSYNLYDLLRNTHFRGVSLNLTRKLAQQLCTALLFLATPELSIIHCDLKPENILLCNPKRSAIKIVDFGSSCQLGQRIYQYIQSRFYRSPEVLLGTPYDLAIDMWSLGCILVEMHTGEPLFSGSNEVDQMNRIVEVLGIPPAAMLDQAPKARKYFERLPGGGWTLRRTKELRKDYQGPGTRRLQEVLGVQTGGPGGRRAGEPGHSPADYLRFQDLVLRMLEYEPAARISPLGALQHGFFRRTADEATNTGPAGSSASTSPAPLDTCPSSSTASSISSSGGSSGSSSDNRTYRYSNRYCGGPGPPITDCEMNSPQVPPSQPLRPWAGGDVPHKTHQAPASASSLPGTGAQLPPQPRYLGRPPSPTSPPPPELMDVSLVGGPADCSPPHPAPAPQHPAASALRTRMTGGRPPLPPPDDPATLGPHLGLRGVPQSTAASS

[10] = target: EGFR (human) (UniProt P00533)
[11] = target: EPHA5 (human) (UniProt P54756)
[12] = target: EPHA8 (human) (UniProt P29322)
[13] = target: FGFR1 (human) (UniProt P11362)
[14] = target: FLT3 (human) (UniProt P36888)
[15] = target: FRK (human) (UniProt P42685)
[16] = target: FYN (human) (UniProt P06241)
FYN (human), sequence (P06241 whole entry, looked up): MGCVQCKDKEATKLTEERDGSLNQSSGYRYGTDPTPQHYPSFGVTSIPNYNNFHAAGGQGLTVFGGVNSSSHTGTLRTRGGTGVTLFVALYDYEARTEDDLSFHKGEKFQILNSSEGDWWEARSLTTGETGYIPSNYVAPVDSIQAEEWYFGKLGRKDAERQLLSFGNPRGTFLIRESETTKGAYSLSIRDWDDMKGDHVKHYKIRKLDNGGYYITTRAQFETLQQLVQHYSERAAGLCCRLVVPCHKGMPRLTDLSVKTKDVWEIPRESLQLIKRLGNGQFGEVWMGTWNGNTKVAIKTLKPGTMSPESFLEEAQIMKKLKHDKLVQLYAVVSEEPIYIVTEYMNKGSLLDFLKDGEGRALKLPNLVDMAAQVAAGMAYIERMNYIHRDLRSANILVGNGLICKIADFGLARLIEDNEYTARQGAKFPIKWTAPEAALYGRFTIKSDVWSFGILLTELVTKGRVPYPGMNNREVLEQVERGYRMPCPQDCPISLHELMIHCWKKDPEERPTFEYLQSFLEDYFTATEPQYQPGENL

[17] = target: GRK5 (human) (UniProt P34947)
[18] = target: HIPK1 (human) (UniProt Q86Z02)
[19] = target: IKBKE (human) (UniProt Q14164)
[20] = target: INSRR (human) (UniProt P14616)
[21] = target: IRAK1 (human) (UniProt P51617)
[22] = target: LCK (human) (UniProt P06239)
LCK (human), sequence (P06239 whole entry, looked up): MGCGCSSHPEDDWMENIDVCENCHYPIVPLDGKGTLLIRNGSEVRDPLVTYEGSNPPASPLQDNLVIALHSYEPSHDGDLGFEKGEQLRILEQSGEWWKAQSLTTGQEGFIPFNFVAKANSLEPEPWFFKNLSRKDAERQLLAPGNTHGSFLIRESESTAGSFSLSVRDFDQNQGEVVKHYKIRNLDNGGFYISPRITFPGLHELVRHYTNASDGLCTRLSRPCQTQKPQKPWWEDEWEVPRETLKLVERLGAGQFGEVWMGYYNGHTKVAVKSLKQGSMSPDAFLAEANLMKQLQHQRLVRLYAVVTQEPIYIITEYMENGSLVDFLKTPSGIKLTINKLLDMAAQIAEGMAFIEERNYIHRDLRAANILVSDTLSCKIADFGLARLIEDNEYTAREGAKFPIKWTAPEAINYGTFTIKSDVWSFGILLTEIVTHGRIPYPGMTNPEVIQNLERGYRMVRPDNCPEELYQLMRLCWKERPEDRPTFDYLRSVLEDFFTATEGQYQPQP

[23] = target: MAP3K2 (human) (UniProt Q9Y2U5)
MAP3K2 (human), sequence (Q9Y2U5 whole entry, looked up): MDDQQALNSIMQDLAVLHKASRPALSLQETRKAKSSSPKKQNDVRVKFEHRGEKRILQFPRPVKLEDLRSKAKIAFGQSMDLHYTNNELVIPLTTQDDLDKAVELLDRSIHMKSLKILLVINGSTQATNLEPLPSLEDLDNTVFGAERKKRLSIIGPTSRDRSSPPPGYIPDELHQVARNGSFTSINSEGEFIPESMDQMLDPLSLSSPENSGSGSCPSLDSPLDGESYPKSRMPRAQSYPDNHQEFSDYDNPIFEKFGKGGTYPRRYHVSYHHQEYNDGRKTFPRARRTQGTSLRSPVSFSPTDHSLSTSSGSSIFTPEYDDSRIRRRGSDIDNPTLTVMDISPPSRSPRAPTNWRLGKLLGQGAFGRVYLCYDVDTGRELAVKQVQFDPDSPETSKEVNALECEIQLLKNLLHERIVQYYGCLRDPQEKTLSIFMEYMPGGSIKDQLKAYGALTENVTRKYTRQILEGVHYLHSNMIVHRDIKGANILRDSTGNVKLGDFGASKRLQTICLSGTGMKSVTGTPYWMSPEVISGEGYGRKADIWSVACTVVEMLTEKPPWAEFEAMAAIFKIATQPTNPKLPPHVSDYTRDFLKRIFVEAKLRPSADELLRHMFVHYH

[24] = target: MAP3K8 (human) (UniProt P41279)
[25] = target: MARK3 (human) (UniProt P27448)
[26] = target: NEK6 (human) (UniProt Q9HC98)
NEK6 (human), sequence (Q9HC98 whole entry, looked up): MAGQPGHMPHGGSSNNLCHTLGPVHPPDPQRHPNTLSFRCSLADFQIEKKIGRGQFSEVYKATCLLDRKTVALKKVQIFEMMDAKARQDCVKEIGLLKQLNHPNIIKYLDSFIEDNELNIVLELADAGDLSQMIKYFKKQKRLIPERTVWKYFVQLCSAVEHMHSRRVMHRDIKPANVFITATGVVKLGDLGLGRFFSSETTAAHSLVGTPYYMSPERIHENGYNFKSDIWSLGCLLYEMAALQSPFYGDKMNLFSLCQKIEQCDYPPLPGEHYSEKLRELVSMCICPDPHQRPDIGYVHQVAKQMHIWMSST

[27] = target: PDPK1 (human) (UniProt O15530)
PDPK1 (human), sequence (O15530 whole entry, looked up): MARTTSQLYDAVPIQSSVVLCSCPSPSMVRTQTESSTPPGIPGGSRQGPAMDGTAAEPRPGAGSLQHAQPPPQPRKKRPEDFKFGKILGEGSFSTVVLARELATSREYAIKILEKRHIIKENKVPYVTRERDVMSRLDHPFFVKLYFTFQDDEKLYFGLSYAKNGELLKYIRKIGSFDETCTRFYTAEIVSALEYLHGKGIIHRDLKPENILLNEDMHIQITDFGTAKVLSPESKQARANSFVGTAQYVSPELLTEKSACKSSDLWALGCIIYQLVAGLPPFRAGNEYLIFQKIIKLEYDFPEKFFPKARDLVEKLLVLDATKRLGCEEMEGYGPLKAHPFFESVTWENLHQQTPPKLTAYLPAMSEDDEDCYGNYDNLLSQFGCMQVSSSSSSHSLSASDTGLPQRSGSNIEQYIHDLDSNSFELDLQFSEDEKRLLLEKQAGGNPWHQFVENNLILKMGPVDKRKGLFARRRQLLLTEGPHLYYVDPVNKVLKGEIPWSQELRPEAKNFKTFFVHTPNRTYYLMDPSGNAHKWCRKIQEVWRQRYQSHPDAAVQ

[28] = target: PRKCG (human) (UniProt P05129)
[29] = target: PRKCZ (human) (UniProt Q05513)
[30] = target: PRKD2 (human) (UniProt Q9BZL6)
[31] = target: RPS6KA3 KD1 KD2 (human) (UniProt P51812)
RPS6KA3 KD1 KD2 (human), sequence (P51812 whole entry, looked up): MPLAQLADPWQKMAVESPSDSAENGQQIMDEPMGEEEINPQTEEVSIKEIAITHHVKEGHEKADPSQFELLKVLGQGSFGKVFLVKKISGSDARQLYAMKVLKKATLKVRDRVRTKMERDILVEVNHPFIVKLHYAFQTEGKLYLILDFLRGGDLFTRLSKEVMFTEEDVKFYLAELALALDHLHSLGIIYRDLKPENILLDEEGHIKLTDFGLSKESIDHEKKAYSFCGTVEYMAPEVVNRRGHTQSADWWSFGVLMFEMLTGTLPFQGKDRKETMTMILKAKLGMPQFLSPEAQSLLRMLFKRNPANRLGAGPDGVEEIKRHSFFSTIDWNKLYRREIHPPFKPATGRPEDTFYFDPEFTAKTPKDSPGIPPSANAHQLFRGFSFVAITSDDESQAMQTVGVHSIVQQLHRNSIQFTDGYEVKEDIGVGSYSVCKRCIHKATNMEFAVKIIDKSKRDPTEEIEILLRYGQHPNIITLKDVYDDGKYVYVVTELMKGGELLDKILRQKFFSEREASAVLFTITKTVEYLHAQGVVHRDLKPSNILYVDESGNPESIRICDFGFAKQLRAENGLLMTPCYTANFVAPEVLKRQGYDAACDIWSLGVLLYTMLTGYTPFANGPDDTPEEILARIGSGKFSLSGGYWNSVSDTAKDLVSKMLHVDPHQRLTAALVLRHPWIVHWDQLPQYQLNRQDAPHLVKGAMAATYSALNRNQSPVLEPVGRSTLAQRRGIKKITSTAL

[32] = target: RPS6KB1 (human) (UniProt P23443)
[33] = target: TAOK1 (human) (UniProt Q7L7X3)
[34] = target: TEK (human) (UniProt Q02763)
[35] = target: BRAF (human) (UniProt P15056)

ACVR1 (human), sequence (Q04771 whole entry, looked up): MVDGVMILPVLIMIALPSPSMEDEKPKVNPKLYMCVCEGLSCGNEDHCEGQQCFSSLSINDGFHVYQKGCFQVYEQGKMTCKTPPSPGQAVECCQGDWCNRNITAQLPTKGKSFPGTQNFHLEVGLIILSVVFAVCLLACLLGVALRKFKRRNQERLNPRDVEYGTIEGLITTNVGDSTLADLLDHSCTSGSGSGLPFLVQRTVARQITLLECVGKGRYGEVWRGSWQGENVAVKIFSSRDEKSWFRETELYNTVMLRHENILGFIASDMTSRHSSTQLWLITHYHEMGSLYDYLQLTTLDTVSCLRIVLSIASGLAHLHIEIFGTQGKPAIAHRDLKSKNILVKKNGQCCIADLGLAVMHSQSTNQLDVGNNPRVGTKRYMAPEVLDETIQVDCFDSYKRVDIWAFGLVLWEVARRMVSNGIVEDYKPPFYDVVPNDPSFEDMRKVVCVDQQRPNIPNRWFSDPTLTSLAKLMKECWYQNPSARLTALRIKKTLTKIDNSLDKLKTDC
AURKC (human), sequence (Q9UQB9 whole entry, looked up): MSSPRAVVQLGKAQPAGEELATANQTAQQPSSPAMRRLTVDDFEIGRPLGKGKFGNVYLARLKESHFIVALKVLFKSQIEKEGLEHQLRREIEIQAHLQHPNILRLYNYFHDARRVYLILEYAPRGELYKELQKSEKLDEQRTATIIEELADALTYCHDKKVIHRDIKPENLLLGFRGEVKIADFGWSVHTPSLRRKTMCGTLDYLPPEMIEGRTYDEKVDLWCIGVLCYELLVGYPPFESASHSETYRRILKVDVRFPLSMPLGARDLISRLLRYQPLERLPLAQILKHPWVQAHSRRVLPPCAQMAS

Structure (SMILES)	residual activity [1]	residual activity [2]	residual activity [3]	residual activity [4]	residual activity [5]	residual activity [6]	residual activity [7]	residual activity [8]	residual activity [9]	residual activity [11]	residual activity [13]	residual activity [14]	residual activity [16]	residual activity [17]	residual activity [18]	residual activity [19]	residual activity [20]	residual activity [22]	residual activity [23]	residual activity [24]	also measured
O=c1c2ccccc2[nH]c(=S)n1CCN1CCC(=C(c2ccc(F)cc2)c2ccc(F)cc2)CC1	107%	100%	99.4%	85.5%	105%	96.8%	93.8%	97.6%	97.1%	112%	105%	104%	102%	103%	107%	101%	98.3%	99.5%	99.6%	100%	residual activity [10]: 101%; residual activity [12]: 102%; residual activity [15]: 100%; residual activity [21]: 106%; residual activity [25]: 107%; residual activity [26]: 96.2%; residual activity [27]: 99.2%; residual activity [28]: 100%; residual activity [29]: 102%; residual activity [30]: 98.9%; residual activity [31]: 99.8%; residual activity [32]: 97.9%; residual activity [33]: 101%; residual activity [34]: 96.1%
c1ccc(-c2cnc(Nc3ccc(OCCN4CCCC4)cc3)s2)cc1	164%	95.8%	94.9%	84.5%	101%	95.2%	95.1%	86.6%	95.4%	97%	75.4%	3.1%	81.1%	99.4%	91.3%	81.6%	99.6%	48.6%	104%	97.2%	residual activity [10]: 98.3%; residual activity [12]: 96.2%; residual activity [15]: 83%; residual activity [21]: 109%; residual activity [25]: 93.1%; residual activity [26]: 102%; residual activity [27]: 84.9%; residual activity [28]: 92.5%; residual activity [29]: 96.3%; residual activity [30]: 82.2%; residual activity [31]: 92.2%; residual activity [32]: 92.3%; residual activity [34]: 102%
CCCCc1c(-c2ccc(O)cc2)[nH]c2nccnc12	83.8%	76.5%	44.9%	86.8%	61.7%	60.3%	85.3%	96%	73.3%	96.4%	81.8%	45.3%	62.1%	104%	97.6%	88.3%	86.6%	86.8%	77.2%	111%	residual activity [35]: 99.3%; residual activity [12]: 97.4%; residual activity [15]: 87.6%; residual activity [21]: 63.4%; residual activity [25]: 88.2%; residual activity [26]: 123%; residual activity [27]: 95.9%; residual activity [28]: 95.1%; residual activity [29]: 97.4%; residual activity [30]: 95.3%; residual activity [31]: 90.8%; residual activity [32]: 105%; residual activity [33]: 70.9%; residual activity [34]: 97%
N/C(=N\N=C/c1ccc(-c2cccc([N+](=O)[O-])c2)o1)N[N+](=O)[O-]	98%	98.9%	90.5%	90.1%	110%	100%	97.8%	101%	104%	100%	97.6%	99.3%	101%	123%	81.1%	101%	99.2%	98.6%	97%	98.8%	residual activity [10]: 100%; residual activity [12]: 102%; residual activity [15]: 90.1%; residual activity [25]: 107%; residual activity [26]: 93.4%; residual activity [27]: 94.6%; residual activity [28]: 96.4%; residual activity [29]: 90.1%; residual activity [30]: 94.3%; residual activity [31]: 101%; residual activity [32]: 100%; residual activity [33]: 89.6%; residual activity [34]: 99.6%
O=S(=O)(NCCNC/C=C/c1ccc(Br)cc1)c1cccc2cnccc12	96.4%	91.3%	89%	102%	97.4%	95.3%	81.5%	93.8%	95.3%	96.9%	87.6%	89.6%	107%	127%	91.4%	92.3%	103%	103%	91.5%	99.4%	residual activity [35]: 99.8%; residual activity [12]: 118%; residual activity [21]: 95.7%; residual activity [25]: 96.2%; residual activity [26]: 100%; residual activity [27]: 94.1%; residual activity [28]: 83.8%; residual activity [29]: 79.8%; residual activity [30]: 75.9%; residual activity [31]: 70.9%; residual activity [32]: 25.6%; residual activity [33]: 101%; residual activity [34]: 99.8%
O=C(c1ccccc1)c1ccc(N2CCOCC2)cc1O	107%	99.6%	102%	90.4%	103%	103%	92.5%	103%	105%	112%	95.9%	90.6%	106%	105%	104%	101%	97.6%	101%	102%	99.6%	residual activity [10]: 94.9%; residual activity [15]: 102%; residual activity [21]: 103%; residual activity [25]: 105%; residual activity [26]: 95%; residual activity [27]: 101%; residual activity [28]: 95.6%; residual activity [29]: 85%; residual activity [30]: 99.1%; residual activity [31]: 104%; residual activity [32]: 95.3%; residual activity [33]: 100%

From the kinase profiling compilation of Christmann-Franck et al. (2016)
